Test results published in US12565497B2 (Hoffmann-La Roche Inc., priority 2020, dated 2026).
Counter-ions that a name gives are not always drawn.

molecular target: Recombinant human Mat2a (Homo sapiens (Human), UniProt P31153); test: Determination of Mat2A activity (384 well absorbance-based assay, Biomol Green); type: biochemical; settings: 12.5 nM Mat2A, 100 μM ATP and Methionine, 2% DMSO, 120 minutes at RT, absorbance at 635 nm; read-out: MAT2A_LEC IC50 (uM) (Num)
Method: Determination of Mat2A Activity
Measurement of Mat2A inhibition is performed in 384 well format absorbance-based assay. Recombinant human Mat2a (12.5 nM) and serial diluted compounds in DMSO (range of concentrations from 10 μM to 508 pM) or controls (DMSO) are incubated for 15 minutes at room temperature (RT) in assay buffer containing 50 mM HEPES pH 7.5, 50 mM KCl, 50 mM MgCl2, 0.01%Tween 20 and 10 mM DTT. The reaction is initiated by the addition of the combined substrates ATP and Methionine, each at a final concentration of 100 μM. Final assay condition are 12.5 nM Mat2A, 100 μM ATP and Methionine Substrates and 2% DMSO. After 120 minutes of incubation at RT, the reaction is stopped by the addition of Biomol Green. The absorbance signal is measured at λ=635 nm with a multiplate reader (BMG Pherastar reader or equivalent) after 30 min of equilibration at RT.

Chain of Recombinant human Mat2a (P31153 whole entry): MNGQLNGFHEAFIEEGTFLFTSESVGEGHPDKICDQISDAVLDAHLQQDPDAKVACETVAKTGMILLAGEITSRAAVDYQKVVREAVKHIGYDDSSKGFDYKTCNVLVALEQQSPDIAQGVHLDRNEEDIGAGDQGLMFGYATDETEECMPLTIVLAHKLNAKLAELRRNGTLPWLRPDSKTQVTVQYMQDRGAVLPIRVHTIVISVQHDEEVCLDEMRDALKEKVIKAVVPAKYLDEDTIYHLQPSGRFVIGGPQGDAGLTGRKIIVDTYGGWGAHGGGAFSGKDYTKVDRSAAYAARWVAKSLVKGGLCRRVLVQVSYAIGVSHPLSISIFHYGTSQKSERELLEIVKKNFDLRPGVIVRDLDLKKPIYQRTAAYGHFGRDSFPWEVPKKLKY

Row | Structure (SMILES) | IC50 [µM]
1 | Cc1cc(-c2nccc3[nH]nc(OC(F)F)c23)ccc1S(=O)(=O)CCO [Example 36, 2-[4-[3-(difluoromethoxy)-1H-pyrazolo[4,3-c]pyridin-4-yl]-2-methyl-phenyl]sulfonylethanol] | 0.051
2 | Cc1cc(-c2nccc3[nH]nc(C#N)c23)ccc1S(C)(=O)=O [Example 61, 4-(3-methyl-4-(methylsulfonyl)phenyl)-1H-pyrazolo[4,3-c]pyridine-3-carbonitrile] | 0.25
3 | Cc1cc(-c2c([S+](C)[O-])ccc3[nH]nc(C4CC4)c23)ccc1S(C)(=O)=O (stereo not drawn) [Example 76, 3-cyclopropyl-4-(3-methyl-4-(methylsulfonyl)phenyl)-5-(methylsulfinyl)-1H-indazole] | 0.26
4 | Cc1cc(S(C)(=O)=O)c(C)cc1-c1nccc2[nH]nc(C3CC3)c12 [Example 22, 3-cyclopropyl-4-(2,5-dimethyl-4-methylsulfonyl-phenyl)-1H-pyrazolo[4,3-c]pyridine hydrochloride] | 0.15
5 | Cc1cc(-c2c(C(=O)N(C)C)ncc3[nH]nc(C4CC4)c23)ccc1S(C)(=O)=O [Example 83, 3-cyclopropyl-N,N-dimethyl-4-(3-methyl-4-(methylsulfonyl)phenyl)-1H-pyrazolo[3,4-c]pyridine-5-carboxamide] | 0.5
6 | Cc1cc(-n2c(=O)c(C3CC3)cc3[nH]nc(C4CC4)c32)ccc1S(C)(=O)=O [Example 81, 3,6-dicyclopropyl-4-(3-methyl-4-methylsulfonyl-phenyl)-1H-pyrazolo[4,3-b]pyridin-5-one] | 0.079
7 | Cc1cc(-c2nccc3[nH]nc(C4CC4)c23)ccc1[S+](C)[O-] (stereo not drawn) [Example 23, 3-cyclopropyl-4-(3-methyl-4-methylsulfmyl-phenyl)-1H-pyrazolo[4,3-c]pyridine hydrochloride] | 0.083
8 | Cc1cc(-c2nccc3[nH]nc(C(F)F)c23)ccc1S(C)(=O)=O [Example 18, 3-(difluoromethyl)-4-(3-methyl-4-methylsulfonylphenyl)-1H-pyraxolo[4,3-c]pyridine] | 0.095
9 | CS(=O)(=O)c1ccc(-c2nccc3[nH]nc(C4CC4)c23)cc1CF [Example 13, 3-cyclopropyl-4-(3-(fluoromethyl)-4-(methylsulfonyl)phenyl)-1H-pyrazolo[4,3-c]pyridine] | 0.11
10 | CS(=O)(=O)c1ccc(-c2nccc3[nH]nc(C4CC4)c23)cc1N [Example 59, 5-(3-cyclopropyl-1H-pyrazolo[4,3-c]pyridin-4-yl)-2-(methylsulfonyl)aniline] | 0.26
11 | COc1cc2[nH]nc(C3CC3)c2c(-c2ccc(S(C)(=O)=O)c(C)c2)n1 [Example 70, 3-cyclopropyl-6-methoxy-4-(3-methyl-4-methylsulfonylphenyl)-1H-pyrazolo[4,3-c]pyridine] | 0.061
12 | CS(=O)(=O)c1ccc(-c2c(S(C)(=O)=O)ccc3[nH]nc(C4CC4)c23)cc1C(F)F [Example 94, 3-cyclopropyl-4-(3-(difluoromethyl)-4-(methylsulfonyl)phenyl)-5-(methylsulfonyl)-1H-indazole] | 0.05
13 | CNC(=O)c1ncc2[nH]nc(C3CC3)c2c1-c1ccc(S(=O)(=O)C2CC2)c(C)c1 [Example 46, 3-cyclopropyl-4-(4-cyclopropylsulfonyl-3-methyl-phenyl)-N-methyl-1H-pyrazolo[3,4-c]pyridine-5-carboxamide] | < 0.013
14 | CS(=O)(=O)c1ccc(-c2nccc3[nH]nc(C4CC4)c23)cc1C(F)(F)F [Example 4, 3-cyclopropyl-4-(4-(methylsulfonyl)-3-(trifluoromethyl)phenyl)-1H-pyrazolo[4,3-c]pyridine] | 0.24
15 | CC(=O)NCCOCCNc1cnc(-c2ccc(S(C)(=O)=O)c(C)c2)c2c(C3CC3)n[nH]c12 [Example 99, N-[2-[2-[[3-cyclopropyl-4-(3-methyl-4-methylsulfonyl-phenyl)-1H-pyrazolo[4,3-c]pyridin-7-yl]amino]ethoxy]ethyl]acetamide] | 0.07
16 | Cc1cc(-c2nccc3[nH]nc(C4CC4)c23)ccc1S(C)(=O)=O [Example 1, 3-cyclopropyl-4-(3-methyl-4-(methylsulfonyl)phenyl)-1H-pyrazolo[4,3-c]pyridine] | 0.048
17 | COc1n[nH]c2ccnc(-c3ccc(S(C)(=O)=O)c(C)c3)c12 [Example 58, 3-methoxy-4-(3-methyl-4-(methylsulfonyl)phenyl)-1H-pyrazolo[4,3-c]pyridine] | 0.24
18 | Cc1cc(-c2ncc(NCCOCCN)c3[nH]nc(C4CC4)c23)ccc1S(C)(=O)=O [Example 101, N-[2-(2-aminoethoxy)ethyl]-3-cyclopropyl-4-(3-methyl-4-methylsulfonyl-phenyl)-1H-pyrazolo[4,3-c]pyridin-7-amine] | 0.14
19 | CS(=O)(=O)c1ccc(-c2nccc3[nH]nc(C4CC4)c23)cc1Cl [Example 3, 4-(3-chloro-4-(methylsulfonyl)phenyl)-3-cyclopropyl-1H-pyrazolo[4,3-c]pyridine] | 0.15

Second part, the compound after the results:

Row | IC50 [µM] | Structure (SMILES)
20 | < 0.013 | Cc1cc(-c2nccc3[nH]nc(C(C)(F)F)c23)ccc1S(C)(=O)=O [Example 17, 3-(1,1-difluoroethyl)-4-(3-methyl-4-(methylsulfonyl)phenyl)-1H-pyrazolo[4,3-c]pyridine]
21 | < 0.013 | Cc1cc(-c2c(C#N)ncc3[nH]nc(C4CC4)c23)ccc1S(=O)(=O)C1CC1 [Example 43, 3-cyclopropvl-4-(4-cyclopropylsulfonyl-3-methyl-phenyl)-1H-pyrazolo[3,4-c]pyridine-5-carbonitrile]
22 | 0.021 | COCS(=O)(=O)c1ccc(-c2nccc3[nH]nc(OC(F)F)c23)cc1C [Example 38, 3-(difluoromethoxy)-4-[4-(methoxymethylsulfonyl)-3-methyl-phenyl]-1H-pyrazolo[4,3-c]pyridine]
23 | 0.042 | Cc1cc(-c2nccc3[nH]nc(C(C)C)c23)ccc1S(C)(=O)=O [Example 19, 3-isopropyl-4-(3-methyl-4-(methylsulfonyl)phenyl)-1H-pyrazolo[4,3-c]pyridine]
24 | 0.029 | Cc1cc(-n2c(=O)ccc3[nH]cc(C4CC4)c32)ccc1S(C)(=O)=O [Example 92, 3-cyclopropyl-4-(3-methyl-4-methylsulfonyl-phenyl)-1H-pyrrolo[3,2-b]pyridin-5-one]
25 | < 0.013 | Cc1cc(-c2c(S(=O)(=O)C3CC3)ccc3[nH]nc(OC(F)F)c23)ccc1S(C)(=O)=O [Example 118, 5-cyclopropylsulfonyl-3-(difluoromethoxy)-4-(3-methyl-4-methylsulfonyl-phenyl)-1H-indazole]
26 | 0.015 | COc1ncc2[nH]nc(C(F)(F)F)c2c1-c1ccc(S(C)(=O)=O)c(C(F)F)c1 [Example 54, 4-[3-(difluoromethyl)-4-methylsulfonyl-phenyl]-5-methoxy-3-(trifluoromethyl)-1H-pyrazolo[3,4-c]pyridine]
27 | 0.017 | Cc1cc(-c2c(S(C)(=O)=O)ccc3[nH]nc(C(F)(F)F)c23)ccc1S(C)(=O)=O [Example 44, 4-(3-methyl-4-(methylsulfonyl)phenyl)-5-(methylsulfonyl)-3-(trifluoromethyl)-1H-indazole]
28 | < 0.013 | Cc1cc(-c2nccc3[nH]nc(OC(F)(F)F)c23)ccc1S(C)(=O)=O [Example 71, 4-(3-methyl-4-(methylsulfonyl)phenyl)-3-(trifluoromethoxy)-1H-pyrazolo[4,3-c]pyridine]
29 | < 0.013 | Cc1cc(-c2c(C(N)=O)ncc3[nH]nc(C4CC4)c23)ccc1S(C)(=O)=O [Example 72, 3-cyclopropyl-4-(3-methyl-4-(methylsulfonyl)phenyl)-1H-pyrazolo[3,4-c]pyridine-5-carboxamide]
30 | 0.03 | CC(=O)NCCCNc1cnc(-c2ccc(S(C)(=O)=O)c(C)c2)c2c(C3CC3)n[nH]c12 [Example 100, N-[3-[[3-cyclopropyl-4-(3-methyl-4-methylsulfonyl-phenyl)-1H-pyrazolo[4,3-c]pyridin-7-yl]amino]propyl]acetamide]
31 | < 0.013 | Cc1cc(-c2c(C#N)ccc3[nH]nc(OC(F)F)c23)ccc1S(C)(=O)=O [Example 69, 3-(difluoromethoxy)-4-(3-methyl-4-(methylsulfonyl)phenyl)-1H-indazole-5-carbonitrile]
32 | < 0.013 | Cc1cc(-c2c(S(C)(=O)=O)ccc3[nH]nc(OC(F)(F)F)c23)ccc1S(C)(=O)=O [Example 93, 4-(3-methyl-4-(methylsulfonyl)phenyl)-5-(methylsulfonyl)-3-(trifluoromethoxy)-1H-indazole]
33 | < 0.013 | Cc1cc(-c2c(C(N)=O)ncc3[nH]nc(OC(F)F)c23)ccc1S(C)(=O)=O [Example 98, 3-(difluoromethoxy)-4-(3-methyl-4-methylsulfonyl-phenyl)-1H-pyrazolo[3,4-c]pyridine-5-carboxamide]
34 | 0.013 | CSc1ccc2[nH]nc(C3CC3)c2c1-c1ccc(S(C)(=O)=O)c(C)c1 [Example 75, 3-cyclopropyl-4-(3-methyl-4-(methylsulfonyl)phenyl)-5-(methylthio)-1H-indazole]
35 | < 0.013 | Cc1cc(-c2c(S(=O)(=O)C3COC3)ccc3[nH]nc(OC(F)F)c23)ccc1S(C)(=O)=O [Example 111, 3-(difluoromethoxy)-4-(3-methyl-4-methylsulfonyl-phenyl)-5-(oxetan-3-ylsulfonyl)-1H-indazole]
36 | < 0.013 | CNC(=O)c1ncc2[nH]nc(C3CC3)c2c1-c1ccc(S(C)(=O)=O)c(C)c1 [Example 73]
